Measurements taken from publication PMC10879502, “Linking ATP and allosteric sites to achieve superadditive binding with bivalent EGFR kinase inhibitors” (Communications Chemistry, 2024).
Several values for one entry are separate records, joined by “and”; a condition that tells them apart may be missing. Identical values can stand only once. Like-named read-outs stand apart in the source and are kept apart here. Values belong to the molecule of their own block, whether it stands above or below them.

Columns and labels:
[1] = system: EGFR phosphorylation (pY1068) in H1975 cells; assay: Western blot; assay type: cell-based, human; settings: H1975, 6 h
Method: H1975, H3255, H3255GR and HCC827 lung adenocarcinoma cells (obtained from Dr. Pasi Jänne in Dana-Farber Cancer Institute, 2022) were cultured in RPMI 1640 media (Corning, 1004-CV) supplemented with 10% FBS (Tissue Culture Biologicals, 35-010-CV) and 1% penicillin-streptomycin (P/S, Corning, 30-002-CI). All cell lines were tested negative for Mycoplasma using Myco-Sniff-Rapid™ Mycoplasma Luciferase Detection Kit Plus PCR Primer Set (MP biomedicals, 0930504-CF) and were passaged and/or used for no longer than 4 weeks for all experiments H1975 and HCC-827 cells were seeded in 6-well plates with 400,000 cells per well and incubated overnight. H3255 and H3255GR cells were seeded in 12-well plates with 200,000 cells per well and were grown to confluency after 48 h. Culture medium was removed, cells washed with PBS, and lysed with lysis buffer containing 5 M NaCl, 1 M TRIS pH 8.0, 10% SDS, 10% Triton X-100 and a tablet of protease and phosphatase inhibitor. Protein lysate concentration was analyzed using Pierce BCA kit (ThermoFisher, 23225). Protein samples (10 µg) were resolved on hand-cast Criterion Tris-HCl protein gels. Primary antibodies used; phospho-EGFR (Tyr1068; #2234, 1:1,000), EGFR (#4267; 1:1,000), phospho-AKT (Ser473; #4060, 1:1,000), AKT (#9272, 1:1,000), phospho-ERK1/2 (Thr202/Tyr204; #4370, 1:1,000), and ERK1/2 (#4695, 1:1,000) antibodies; were purchased from Cell Signaling Technology. Secondary Goat anti-rabbit IgG starbright blue 700 (Biorad, 64484700) and Anti-tubulin hFAB Rhodamine Tubulin (Bio-Rad, 64512248). Western blots were visualized with the ChemiDoc MP imager (Bio-Rad) utilizing the Image Lab Touch Software (version 2.4.0.03). All Western blot images are representatives of at least 3 independent replicate experiments.

WT EGFR kinase domain = target: T1, WT EGFR kinase domain (Homo sapiens, UniProt P00533); assay: HTRF KinEASE-TK kinase activity assay; assay type: biochemical
T1 construct: The EGFR kinase domain (residues 696–1022) was cloned into pTriEx; 6xHis (N, cleaved yes); GST (N, cleaved yes); made in house; host or cells: SF9 insect cells, baculovirus

[2] = target: T2, EGFR L858R/T790M/C797S (LRTMCS) kinase domain (Homo sapiens, UniProt P00533, C797S/L858R/T790M); assay: HTRF KinEASE-TK kinase activity assay; assay type: biochemical
T2 construct: The EGFR kinase domain (residues 696–1022) was cloned into pTriEx; 6xHis (N, cleaved yes); GST (N, cleaved yes); made in house; host or cells: SF9 insect cells, baculovirus

[3] = target: T3, EGFR L858R (LR) kinase domain (Homo sapiens, UniProt P00533, L858R); assay: HTRF KinEASE-TK kinase activity assay; assay type: biochemical
T3 construct: The EGFR kinase domain (residues 696–1022) was cloned into pTriEx; 6xHis (N, cleaved yes); GST (N, cleaved yes); made in house; host or cells: SF9 insect cells, baculovirus

[4] = target: T4, EGFR L858R/T790M (LRTM) kinase domain (Homo sapiens, UniProt P00533, L858R/T790M); assay: HTRF KinEASE-TK kinase activity assay; assay type: biochemical; settings: for linking coefficients: limits estimated from LRTM IC50 values; for Linking coefficient E: LRTM IC50, upper limit; for activity: LRTM, read-out: percent inhibition
T4 construct: The EGFR kinase domain (residues 696–1022) was cloned into pTriEx; 6xHis (N, cleaved yes); GST (N, cleaved yes); made in house; host or cells: SF9 insect cells, baculovirus

[5] = system: Ba/F3 cells, LR/TM/CS EGFR; settings: Ba/F3 ref 4 Wittlinger and Heppner; cited from earlier work
Ba/F3 cells, L858R EGFR = settings: Ba/F3 ref 4 Wittlinger and Heppner; read-out: EGFR EC50, LR; cited from earlier work
[6] = system: Ba/F3 cells, wildtype EGFR; settings: Ba/F3 ref 4 Wittlinger and Heppner; read-out: EGFR EC50, wt; cited from earlier work
[7] = system: Ba/F3 cells, L858R/T790M EGFR; settings: Ba/F3 ref 4 Wittlinger and Heppner; read-out: EGFR EC50, LR/TM; cited from earlier work
[8] = enzyme 10 nM, ATP 100 µM, read-out: Biochemical EGFR IC50, WT
[9] = enzyme 0.02 nM, ATP 100 µM, read-out: Biochemical EGFR IC50, LRTMCS
[10] = enzyme 0.1 nM, ATP 100 µM, read-out: Biochemical EGFR IC50, LR
[11] = Table S1, ATP 100 µM, read-out: IC50, LRTM
[12] = enzyme 0.02 nM, ATP 100 µM, read-out: Biochemical EGFR IC50, LRTM

Structure (SMILES): CSc1nc(-c2cccc(CN3C(=O)c4ccccc4Nc4ccc(F)cc43)c2)c(-c2ccnc(NC(C)=O)c2)[nH]1 [Compound 1]
suppression of EGFR phosphorylation [1]: limited ability to suppress phosphorylation | IC50 (WT EGFR kinase domain; [8]): > 10000 nM | IC50 (WT EGFR kinase domain; read-out: IC50, WT): ≥ 1000 nM | activity at 3.181 pM ([2]; LRTMCS, [Inhibitor] 0.00318089 nM, read-out: percent inhibition): 103% | activity at 7.783 pM ([2]; LRTMCS, [Inhibitor] 0.00778314 nM, read-out: percent inhibition): 94.6% | activity at 19.04 pM ([2]; LRTMCS, [Inhibitor] 0.0190441 nM, read-out: percent inhibition): 99.4% | activity at 46.6 pM ([2]; LRTMCS, [Inhibitor] 0.0465979 nM, read-out: percent inhibition): 97.2% | activity at 0.000114018 µM ([2]; LRTMCS, [Inhibitor] 0.114018 nM, read-out: percent inhibition): 94.5% | activity at 0.000278983 µM ([2]; LRTMCS, [Inhibitor] 0.278983 nM, read-out: percent inhibition): 83% | activity at 0.000682626 µM ([2]; LRTMCS, [Inhibitor] 0.682626 nM, read-out: percent inhibition): 67.9% | activity at 0.00167028 µM ([2]; LRTMCS, [Inhibitor] 1.67028 nM, read-out: percent inhibition): 39.3% | activity at 0.0040869 µM ([2]; LRTMCS, [Inhibitor] 4.0869 nM, read-out: percent inhibition): 19.2% | activity at 0.01 µM ([2]; LRTMCS, [Inhibitor] 10 nM, read-out: percent inhibition): 9.7% | activity at 1.3 pM ([2]; LRTMCS, [Inhibitor] […], read-out: percent inhibition): 102% | IC50 [2, 9]: > 10000 nM | IC50 ([2]; read-out: IC50, LRTMCS): ≥ 1000 nM | activity at 3.181 pM ([3]; LR, [Inhibitor] 0.00318089 nM, read-out: percent inhibition): 103% | activity at 7.783 pM ([3]; LR, [Inhibitor] 0.00778314 nM, read-out: percent inhibition): 94.6% | activity at 19.04 pM ([3]; LR, [Inhibitor] 0.0190441 nM, read-out: percent inhibition): 99.4% | activity at 46.6 pM ([3]; LR, [Inhibitor] 0.0465979 nM, read-out: percent inhibition): 97.2% | activity at 0.000114018 µM ([3]; LR, [Inhibitor] 0.114018 nM, read-out: percent inhibition): 94.5% | activity at 0.000278983 µM ([3]; LR, [Inhibitor] 0.278983 nM, read-out: percent inhibition): 83% | activity at 0.000682626 µM ([3]; LR, [Inhibitor] 0.682626 nM, read-out: percent inhibition): 67.9% | activity at 0.00167028 µM ([3]; LR, [Inhibitor] 1.67028 nM, read-out: percent inhibition): 39.3% | activity at 0.0040869 µM ([3]; LR, [Inhibitor] 4.0869 nM, read-out: percent inhibition): 19.2% | activity at 0.01 µM ([3]; LR, [Inhibitor] 10 nM, read-out: percent inhibition): 9.7% | activity at 1.3 pM ([3]; LR, [Inhibitor] […], read-out: percent inhibition): 102% | IC50 [3, 10]: 1300 ± 100 nM | IC50 ([3]; read-out: IC50, LR): ≥ 1000 nM | IC50 [4, 11]: ≥ 1000 nM | IC50 [4, 12]: > 10000 nM | linking coefficients [4]: > 2e+07 M⁻¹

Structure (SMILES): CCc1nc(-c2cccc(NC(=O)c3cccc4c3NC(=O)c3ccccc3N4)c2)c(-c2ccnc(NC(C)=O)c2)[nH]1 [Compound 3]
suppression of EGFR phosphorylation [1]: also effective in H1975 cells, however to a lesser extent than 4 | IC50 (WT EGFR kinase domain; [8]): < 10 nM | activity ([2]; LRTMCS, [Inhibitor] 1.3e-5 nM, read-out: percent inhibition): 95.4% and 96.9% and 90.5% | activity ([2]; LRTMCS, [Inhibitor] 3.18e-5 nM, read-out: percent inhibition): 86.7% and 90.8% and 88.7% | activity ([2]; LRTMCS, [Inhibitor] 7.78e-5 nM, read-out: percent inhibition): 65.8% and 67.4% and 61.5% | activity at 190.4 fM ([2]; LRTMCS, [Inhibitor] 0.000190441 nM, read-out: percent inhibition): 34.4% | activity at 466 fM ([2]; LRTMCS, [Inhibitor] 0.000465979 nM, read-out: percent inhibition): 15.1% | activity at 1.14 pM ([2]; LRTMCS, [Inhibitor] 0.00114018 nM, read-out: percent inhibition): 9.97% | activity at 2.79 pM ([2]; LRTMCS, [Inhibitor] 0.00278983 nM, read-out: percent inhibition): 5.05% | activity at 6.826 pM ([2]; LRTMCS, [Inhibitor] 0.00682626 nM, read-out: percent inhibition): 3.24% | activity at 16.7 pM ([2]; LRTMCS, [Inhibitor] 0.0167028 nM, read-out: percent inhibition): 1.45% | IC50 [2, 9]: 0.063 ± 0.005 nM | IC50 ([2]; read-out: IC50, LRTMCS): 0.051 to 0.064 nM | activity ([3]; LR, [Inhibitor] 1.3e-5 nM, read-out: percent inhibition): 95.4% and 96.9% and 90.5% | activity ([3]; LR, [Inhibitor] 3.18e-5 nM, read-out: percent inhibition): 86.7% and 90.8% and 88.7% | activity ([3]; LR, [Inhibitor] 7.78e-5 nM, read-out: percent inhibition): 65.8% and 67.4% and 61.5% | activity at 190.4 fM ([3]; LR, [Inhibitor] 0.000190441 nM, read-out: percent inhibition): 34.4% | activity at 466 fM ([3]; LR, [Inhibitor] 0.000465979 nM, read-out: percent inhibition): 15.1% | activity at 1.14 pM ([3]; LR, [Inhibitor] 0.00114018 nM, read-out: percent inhibition): 9.97% | activity at 2.79 pM ([3]; LR, [Inhibitor] 0.00278983 nM, read-out: percent inhibition): 5.05% | activity at 6.826 pM ([3]; LR, [Inhibitor] 0.00682626 nM, read-out: percent inhibition): 3.24% | activity at 16.7 pM ([3]; LR, [Inhibitor] 0.0167028 nM, read-out: percent inhibition): 1.45% | IC50 [3, 10]: 1.2 ± 0.09 nM | Linking coefficient E ([4]; ATP fragment 5, allosteric fragment 10): < 0.88 M⁻¹ | Linking coefficient E ([4]; ATP fragment 6, allosteric fragment 10): < 0. 51 M-1 | activity ([4]; [Inhibitor] 1.3e-5 nM): 80.3% and 89% and 81.1% | activity ([4]; [Inhibitor] 3.18e-5 nM): 69.3% and 75.7% and 76.3% | activity ([4]; [Inhibitor] 7.78e-5 nM): 34.1% and 36.2% and 33.7% | activity ([4]; [Inhibitor] 0.000190441 nM, 190.4 fM): 16.3% and 13.5% | activity ([4]; [Inhibitor] 0.000465979 nM, 466 fM): 5.63% and 5.16% | activity ([4]; [Inhibitor] 0.00114018 nM, 1.14 pM): 4.05% and 3.39% | activity ([4]; [Inhibitor] 0.00278983 nM, 2.79 pM): 3.12% and 3.28% | activity ([4]; [Inhibitor] 0.00682626 nM, 6.826 pM): 2.4% and 2.45% | IC50 ([4]; Table S1, read-out: IC50, LRTM): 0.051 to 0.064 nM and 0.051 to 0.059 nM | IC50 [4, 12]: 0.051 ± 0.005 nM | linking coefficients [4]: 0.5 to 1.0 M⁻¹

Structure (SMILES): C=CC(=O)Nc1cc(Nc2nccc(-c3cn(C)c4ccccc34)n2)c(OC)cc1N(C)CCN(C)C [AZD9291]
EC50 [5]: 1200 ± 130 nM | EC50 (Ba/F3 cells, L858R EGFR): 3.3 ± 0.6 nM | EC50 [6]: 110 ± 40 nM | EC50 [7]: 8 nM

The remaining lines, values ahead:

IC50, LRTM ([4]; Table S1, ATP 100 µM): virtually inactive | IC50 [4, 11]: ≥ 10000 nM
Structure (SMILES): O=C1Nc2c(cccc2C(=O)Nc2ccccc2)Nc2ccccc21 [Compound 10]

IC50 (WT EGFR kinase domain; [8]): > 1000 nM | IC50 [2, 9]: 39 to 59 nM | IC50 [4, 12]: 52 nM
Structure (SMILES): O=C1c2cc(F)ccc2Nc2ccccc2N1Cc1ccccc1 [Compound 9, reference compound]
